Measurements from ChEMBL document CHEMBL3045964, “Synthesis, cytotoxicity, and structureactivity insight of NH- and N-methyl-3,5-bis-(arylidenyl)-4-piperidones” (Med Chem Res, 2013).

Experiments:
L1210 = test: Cytotoxicity against Mus musculus (mouse) L1210 cells assessed as growth inhibition after 72 hr by MTT assay; assay type: functional, cell-based; settings: L1210, 72 h
B16 = test: Cytotoxicity against Mus musculus (mouse) B16 cells assessed as growth inhibition after 72 hr by MTT assay; assay type: functional, cell-based; settings: B16, 72 h

SMILES | IC50 (L1210) | IC50 (B16)
O=C1/C(=C/c2ccc(Cl)c(Cl)c2)CNC/C1=C\c1ccc(Cl)c(Cl)c1 | 3.6 µM | 4.1 µM
O=C1/C(=C/c2ccc(O)c([N+](=O)[O-])c2)CNC/C1=C\c1ccc(O)c([N+](=O)[O-])c1 | 2 µM | 7.3 µM
CCN(CC)c1ccc2cc(/C=C3\CNC/C(=C\c4cc5ccc(N(CC)CC)cc5oc4=O)C3=O)c(=O)oc2c1 | 29 µM | 44 µM
CCN(CC)c1ccc(/C=C2\CN(C)C/C(=C\c3ccc(N(CC)CC)cc3)C2=O)cc1 | 3.3 µM | 33 µM
CCN(CC)c1ccc(/C=C2\CNC/C(=C\c3ccc(N(CC)CC)cc3)C2=O)cc1 | 35 µM | 1.5 µM
CN1C/C(=C\c2ccc(N(C)C)cc2)C(=O)/C(=C/c2ccc(N(C)C)cc2)C1 | 28.5 µM | 23.5 µM
COc1ccc(/C=C2\CNC/C(=C\c3ccc(OC)nc3)C2=O)cn1 | 2.8 µM | 3.6 µM
COc1ccc(OC)c(/C=C2\CNC/C(=C\c3cc(OC)ccc3OC)C2=O)c1 | 0.3 µM | 0.3 µM
O=C1/C(=C/c2ccc3c(c2)OCO3)CNC/C1=C\c1ccc2c(c1)OCO2 | 12.5 µM | 25 µM
COc1cc(/C=C2\CNC/C(=C\c3cc(OC)cc(OC)c3)C2=O)cc(OC)c1 | 0.3 µM | 0.3 µM
COc1cc(OC)c(/C=C2\CNC/C(=C\c3c(OC)cc(OC)cc3OC)C2=O)c(OC)c1 | 1.1 µM | 0.2 µM
COc1cccc(/C=C2\CNC/C(=C\c3cccc(OC)c3)C2=O)c1 | 4.3 µM | 1.9 µM
O=C1/C(=C/c2cccc(Br)c2)CNC/C1=C\c1cccc(Br)c1 | > 100 µM | 2.1 µM
CN1C/C(=C\c2cccc(Br)c2)C(=O)/C(=C/c2cccc(Br)c2)C1 | 5 µM | 2.1 µM
CN1C/C(=C\c2ccc(F)cc2)C(=O)/C(=C/c2ccc(F)cc2)C1 | 31 µM | 6.5 µM
O=C1/C(=C/c2cccc(O)c2)CNC/C1=C\c1cccc(O)c1 | 2.3 µM | 0.7 µM
O=C1/C(=C/c2ccc(Cl)cc2)CNC/C1=C\c1ccc(Cl)cc1 | 7 µM | 4 µM
O=C1/C(=C/c2ccc(F)cc2)CNC/C1=C\c1ccc(F)cc1 | 24.5 µM | 3.8 µM
CN(C)c1ccc(/C=C2\CNC/C(=C\c3ccc(N(C)C)cc3)C2=O)cc1 | 42.5 µM | 32.5 µM
CN1C/C(=C\c2ccc(Cl)cc2)C(=O)/C(=C/c2ccc(Cl)cc2)C1 | 10 µM | 3.8 µM
